Source: US10787450B2 (BRISTOL-MYERS SQUIBB COMPANY, priority 2016, dated 2020)

target: ROCK2 (Homo sapiens (Human), UniProt O75116); assay: ROCK2 kinase inhibition assay (FITC peptide substrate, LABCHIP 3000 Reader); assay type: biochemical; settings: 5 μM ATP, 1.5 μM peptide substrate
In short: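 Reaction in 20 mM HEPES pH 7.5, 20 mM MgCl2, 0.015% Brij-35, 4 mM DTT with 5 μM ATP and 1.5 μM FITC-AHA-AKRRRLSSLRA-OH peptide, started with Rho kinase, DMSO <2%. EDTA-stopped; phospho and non-phospho peptide separated by mobility shift. IC50 from dose-response curve fit.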

Sequence of ROCK2 (O75116 whole entry, species assumed): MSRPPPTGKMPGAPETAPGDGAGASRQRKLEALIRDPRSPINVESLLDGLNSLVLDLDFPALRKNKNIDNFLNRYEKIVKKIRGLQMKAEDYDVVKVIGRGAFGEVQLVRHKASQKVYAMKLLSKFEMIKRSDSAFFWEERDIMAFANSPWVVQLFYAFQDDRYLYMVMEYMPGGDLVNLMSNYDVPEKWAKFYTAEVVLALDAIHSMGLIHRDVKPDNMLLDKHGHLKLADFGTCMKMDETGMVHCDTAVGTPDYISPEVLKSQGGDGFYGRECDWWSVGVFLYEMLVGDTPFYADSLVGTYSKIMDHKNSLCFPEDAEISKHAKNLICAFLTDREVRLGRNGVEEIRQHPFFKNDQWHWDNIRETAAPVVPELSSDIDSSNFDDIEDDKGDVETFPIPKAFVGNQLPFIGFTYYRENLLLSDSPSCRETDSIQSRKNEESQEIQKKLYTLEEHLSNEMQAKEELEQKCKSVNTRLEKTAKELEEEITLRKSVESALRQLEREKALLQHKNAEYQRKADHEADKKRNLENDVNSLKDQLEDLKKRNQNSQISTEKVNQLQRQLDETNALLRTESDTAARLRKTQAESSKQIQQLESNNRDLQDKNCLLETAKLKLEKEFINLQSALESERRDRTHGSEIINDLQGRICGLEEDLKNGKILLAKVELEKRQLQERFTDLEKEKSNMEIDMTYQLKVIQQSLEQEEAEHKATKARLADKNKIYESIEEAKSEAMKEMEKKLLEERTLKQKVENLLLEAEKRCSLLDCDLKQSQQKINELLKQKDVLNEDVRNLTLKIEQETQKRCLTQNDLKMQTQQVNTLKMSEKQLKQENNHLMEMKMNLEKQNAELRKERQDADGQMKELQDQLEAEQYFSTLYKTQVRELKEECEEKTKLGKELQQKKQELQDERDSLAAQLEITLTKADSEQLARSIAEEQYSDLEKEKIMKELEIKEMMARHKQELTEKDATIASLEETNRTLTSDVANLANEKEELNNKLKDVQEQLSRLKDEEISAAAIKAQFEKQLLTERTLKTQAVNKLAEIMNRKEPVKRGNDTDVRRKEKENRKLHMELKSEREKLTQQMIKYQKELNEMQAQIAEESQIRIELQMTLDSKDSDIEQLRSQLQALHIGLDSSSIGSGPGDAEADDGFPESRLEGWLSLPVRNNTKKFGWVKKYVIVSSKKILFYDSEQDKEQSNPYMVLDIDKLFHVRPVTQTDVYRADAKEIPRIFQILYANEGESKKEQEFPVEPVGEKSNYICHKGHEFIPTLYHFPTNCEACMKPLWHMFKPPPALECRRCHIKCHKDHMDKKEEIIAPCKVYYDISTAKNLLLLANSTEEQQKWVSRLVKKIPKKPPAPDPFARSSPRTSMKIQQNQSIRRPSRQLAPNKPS

Q: How did the IC50 turn out when `COC(=O)N1CCC2(CC1)CN(c1ccc(-c3cn[nH]c3)c(OC)n1)C(=O)N2Cc1cccc(F)c1C` [Example 103, methyl 1-(3-fluoro-2-methylbenzyl)-3-(6-methoxy-5-(1H-pyrazol-4-yl)pyridin-2-yl)-2-oxo-1,3,8-triazaspiro[4.5]decane-8-carboxylate] was run?
A: < 3 nM

Q: For `CCc1nc(N2CC3(CCN(C(=O)OC)CC3)N(Cc3cccc(F)c3C)C2=O)ccc1-c1cn[nH]c1` [Example 104, methyl 3-(6-ethyl-5-(1H-pyrazol-4-yl)pyridin-2-yl)-1-(3-fluoro-2-methylbenzyl)-2-oxo-1,3,8-triazaspiro[4.5]decane-8-carboxylate], which IC50 is on record?
A: < 3 nM

Q: For `CCc1nc(N2CC3(CCN(C(=O)OC)CC3)N(Cc3cccc(OC)c3)C2=O)ccc1-c1cn[nH]c1` [Example 105, methyl 3-(6-ethyl-5-(1H-pyrazol-4-yl)pyridin-2-yl)-1-(3-methoxybenzyl)-2-oxo-1,3,8-triazaspiro[4.5]decane-8-carboxylate], which IC50 is on record?
A: < 3 nM

Q: For `CCOC(=O)N1CCC2(CC1)CN(c1ccc(-c3cn[nH]c3)c(CC)n1)C(=O)N2Cc1cc(F)cc(OC)c1` [Example 106, ethyl 3-(6-ethyl-5-(1H-pyrazol-4-yl)pyridin-2-yl)-1-(3-fluoro-5-methoxybenzyl)-2-oxo-1,3,8-triazaspiro[4.5]decane-8-carboxylate], which IC50 is on record?
A: 3 to 30 nM

Q: With `CCc1nc(N2CC3(CCN(C(=O)OC)CC3)N(Cc3cc(F)cc(OC)c3)C2=O)ccc1-c1cn[nH]c1` [Example 107, methyl 3-(6-ethyl-5-(1H-pyrazol-4-yl)pyridin-2-yl)-1-(3-fluoro-5-methoxybenzyl)-2-oxo-1,3,8-triazaspiro[4.5]decane-8-carboxylate] as the molecule, how does the IC50 read?
A: < 3 nM

Q: For `COC(=O)N1CCC2(CC1)CN(c1ccc(-c3cn[nH]c3)cc1)C(=O)N2Cc1cccc(F)c1C` [Example 108, methyl 3-(4-(1H-pyrazol-4-yl)phenyl)-1-(3-fluoro-2-methylbenzyl)-2-oxo-1,3,8-triazaspiro[4.5]decane-8-carboxylate], which IC50 is on record?
A: < 3 nM

Q: `COC(=O)N1CCC2(CC1)CN(c1ccc(-c3cn[nH]c3)cc1)C(=O)N2Cc1cc(F)cc(OC)c1` [Example 109, methyl 3-(4-(1H-pyrazol-4-yl)phenyl)-1-(3-fluoro-5-methoxybenzyl)-2-oxo-1,3,8-triazaspiro[4.5]decane-8-carboxylate] was tested. Which IC50 did it give?
A: < 3 nM

Q: How did the IC50 turn out when `CCOC(=O)N1CCC2(CC1)CN(c1ccc(-c3cn[nH]c3)cn1)C(=O)N2Cc1cccc(OC)c1` [Example 110, ethyl 3-(5-(1H-pyrazol-4-yl)pyridin-2-yl)-1-(3-methoxybenzyl)-2-oxo-1,3,8-triazaspiro[4.5]decane-8-carboxylate] was run?
A: 30 to 250 nM

Q: For `COC(=O)N1CCC2(CC1)CN(c1ncc(-c3cn[nH]c3)c(OC)n1)C(=O)N2Cc1cccc(OC)c1` [Example 111, methyl 3-(4-methoxy-5-(1H-pyrazol-4-yl)pyrimidin-2-yl)-1-(3-methoxybenzyl)-2-oxo-1,3,8-triazaspiro[4.5]decane-8-carboxylate], which IC50 is on record?
A: 3 to 30 nM

Q: With `CCOC(=O)N1CCC2(CC1)CN(c1ncc(-c3cn[nH]c3)c(OC)n1)C(=O)N2Cc1cccc(OC)c1` [Example 112, ethyl 3-(4-methoxy-5-(1H-pyrazol-4-yl)pyrimidin-2-yl)-1-(3-methoxybenzyl)-2-oxo-1,3,8-triazaspiro[4.5]decane-8-carboxylate] as the molecule, how does the IC50 read?
A: 3 to 30 nM

Q: Which IC50 does the source give for `COc1cccc(CN2C(=O)N(c3ccc(-c4cn[nH]c4)cc3)CC23CCN(C)CC3)c1` [Example 113, 3-(4-(1H-pyrazol-4-yl)phenyl)-1-(3-methoxybenzyl)-8-methyl-1,3,8-triazaspiro[4.5]decan-2-one] here?
A: < 3 nM

Q: Which IC50 does the source give for `COc1cccc(CN2C(=O)N(c3ccc(-c4cn[nH]c4)cc3)CC23CCN(CC2CCOC2)CC3)c1` (centres unmarked) [Example 114, 3-(4-(1H-pyrazol-4-yl)phenyl)-1-(3-methoxybenzyl)-8-((tetrahydrofuran-3-yl)methyl)-1,3,8-triazaspiro[4.5]decan-2-one] here?
A: < 3 nM

Q: `COc1cccc(CN2C(=O)N(c3ccc(-c4cn[nH]c4)cc3)CC23CCN(CC2CC2)CC3)c1` [Example 115, 3-(4-(1H-pyrazol-4-yl)phenyl)-8-(cyclopropylmethyl)-1-(3-methoxybenzyl)-1,3,8-triazaspiro[4.5]decan-2-one] was tested. Which IC50 did it give?
A: < 3 nM

Q: Which IC50 does the source give for `CCCN1CCC2(CC1)CN(c1ccc(-c3cn[nH]c3)cc1)C(=O)N2Cc1cccc(OC)c1` [Example 116, 3-(4-(1H-pyrazol-4-yl)phenyl)-1-(3-methoxybenzyl)-8-propyl-1,3,8-triazaspiro[4.5]decan-2-one] here?
A: < 3 nM

Q: With `COc1cccc(CN2C(=O)N(c3ccc(-c4cn[nH]c4)cc3)CC23CCN(CCC(C)C)CC3)c1` [Example 117, 3-(4-(1H-pyrazol-4-yl)phenyl)-8-isopentyl-1-(3-methoxybenzyl)-1,3,8-triazaspiro[4.5]decan-2-one] as the molecule, how does the IC50 read?
A: < 3 nM

Q: How did the IC50 turn out when `COc1cccc(CN2C(=O)N(c3ccc(-c4cn[nH]c4)cc3)CC23CCN(CC2CCCC2)CC3)c1` [Example 118, 3-(4-(1H-pyrazol-4-yl)phenyl)-8-(cyclopentylmethyl)-1-(3-methoxybenzyl)-1,3,8-triazaspiro[4.5]decan-2-one] was run?
A: < 3 nM

Q: `COc1cccc(CN2C(=O)N(c3ccc(-c4cn[nH]c4)cc3)CC23CCN(CC(O)CO)CC3)c1` (centres unmarked) [Example 120, 3-(4-(1H-pyrazol-4-yl)phenyl)-8-(2,3-dihydroxypropyl)-1-(3-methoxybenzyl)-1,3,8-triazaspiro[4.5]decan-2-one] was tested. Which IC50 did it give?
A: < 3 nM

Q: For `COc1cccc(CN2C(=O)N(c3ccc(-c4cn[nH]c4)cc3)CC23CCN(CCC(F)(F)F)CC3)c1` [Example 121, 3-(4-(1H-pyrazol-4-yl)phenyl)-1-(3-methoxybenzyl)-8-(3,3,3-trifluoropropyl)-1,3,8-triazaspiro[4.5]decan-2-one], which IC50 is on record?
A: < 3 nM

Q: How did the IC50 turn out when `CCN1CCC2(CC1)CN(c1ccc(-c3cn[nH]c3)cc1)C(=O)N2Cc1cccc(OC)c1` [Example 122, 3-(4-(1H-pyrazol-4-yl)phenyl)-8-ethyl-1-(3-methoxybenzyl)-1,3,8-triazaspiro[4.5]decan-2-one] was run?
A: < 3 nM

Q: Which IC50 does the source give for `CCC(CC)CN1CCC2(CC1)CN(c1ccc(-c3cn[nH]c3)cc1)C(=O)N2Cc1cccc(OC)c1` [Example 123, 3-(4-(1H-pyrazol-4-yl)phenyl)-8-(2-ethylbutyl)-1-(3-methoxybenzyl)-1,3,8-triazaspiro[4.5]decan-2-one] here?
A: < 3 nM

Q: `COc1cccc(CN2C(=O)N(c3ccc(-c4cn[nH]c4)cc3)CC23CCN(CC(C)C)CC3)c1` [Example 124, 3-(4-(1H-pyrazol-4-yl)phenyl)-8-isobutyl-1-(3-methoxybenzyl)-1,3,8-triazaspiro[4.5]decan-2-one] was tested. Which IC50 did it give?
A: < 3 nM

Q: How did the IC50 turn out when `COc1cccc(CN2C(=O)N(c3ccc(-c4cn[nH]c4)cc3)CC23CCN(CCc2ccccc2)CC3)c1` [Example 125, 3-(4-(1H-pyrazol-4-yl)phenyl)-1-(3-methoxybenzyl)-8-phenethyl-1,3,8-triazaspiro[4.5]decan-2-one] was run?
A: 3 to 30 nM

Q: How did the IC50 turn out when `CCc1nc(N2CC3(CCN(CCC(F)(F)F)CC3)N(Cc3cccc(F)c3C)C2=O)ccc1-c1cn[nH]c1` [Example 126, 3-(6-ethyl-5-(1H-pyrazol-4-yl)pyridin-2-yl)-1-(3-fluoro-2-methylbenzyl)-8-(3,3,3-trifluoropropyl)-1,3,8-triazaspiro[4.5]decan-2-one] was run?
A: 3 to 30 nM
